In patent US20100216751A1 (priority 2007, published 2010):
Several values for one entry are separate records, joined by “and”; a condition that tells them apart may be missing. Equal entries are not always repeated.

Experiment: Pharmacokinetic evaluation of liquid bevirimat dosage forms, oral gavage, male Cynomolgus monkeys
Experimental: Six male Cynomolgus monkeys having an initial body weight of about 3.5 to about 4.5 kg are allowed 7 days to acclimate to their individual housing units. Monkeys are supplied with water and a commercial diet ad libitum prior to the study initiation. Food is withheld from the monkeys for a minimum of twelve hours before the study and during the study until four hours postdose when food is returned. Water is supplied ad libitum.
Test formulations are administered to the monkeys at time 0 on appropriate days. Test formulations will be dosed orally via oral gavage or intravenously.
Samples are drawn at the frequencies indicated below. Each blood sample (0.5 mL) is collected from the monkey's saphenous vein via a butterfly catheter and placed into a chilled polypropylene tube containing sodium heparin as the anticoagulant. Blood samples are centrifuged at a temperature of 4° C. at a speed of 3,000 rpm for 15 minutes. All samples are maintained chilled throughout processing. Plasma is collected after centrifugation, pipetted into a 2-mL polypropylene microtube, and frozen on dry-ice pending analytical evaluation.

[1] = 12.5 mg FAE/mL in 10% HPβCD, 50 mg FAE/monkey oral gavage, monkeys 186,116,120,AVG
[2] = 12.5 mg FAE/mL in 15% EtOH:0.5% TPGS:15% PG:5% Glycerin, 0.2% Povidone K90, 50 mg FAE/monkey oral gavage, monkeys 117,118,119,AVG
[3] = 12.5 mg FAE/mL in 15% Ethanol, 30% PG, 10% Glycerin, 50 mg FAE oral gavage, monkeys 117,118,119,AVG
[4] = 12.5 mg FAE/mL in 40% PG, 20% Glycerin, 0.25% Tween80, 0.2% Povidone K15, 50 mg FAE oral gavage, monkeys 186,116,120,AVG
[5] = 12.5 mg FAE/mL in 40% PG, 20% Glycerin, 1% TPGS, 0.25% Tween80, 0.2% Povidone K15, 50 mg FAE/monkey oral gavage, monkeys 117,118,119,AVG
[6] = 12.5 mg FAE/mL in 40% PG, 20% glycerin, 5% Vitamin E TPGS, 0.25% Tween80, 0.20% Plasdone C15, 10 mM sodium phosphate pH 8.0, 200 mg/monkey (50.0 mg/kg) oral gavage, monkeys 181,182,AVG
[7] = 50 mg FAE/mL in 40% EtOH:40% PG:20% Glycerol, 50 mg FAE/monkey oral gavage, monkeys 117,118,119,AVG
[8] = male, cynomolgus monkey, in vivo, 50 mg/kg, pH 8
[9] = male, cynomolgus monkey, in vivo, po, 50 mg FAE/monkey

## C=C(C)[C@@H]1CC[C@]2(C(=O)O)CC[C@]3(C)[C@H](CC[C@@H]4[C@@]5(C)CC[C@H](OC(=O)CC(C)(C)C(=O)O)C(C)(C)[C@@H]5CC[C@]43C)[C@@H]12 [Bevirimat, 3-O-(3′,3′-dimethylsuccinyl)betulinic acid]
[1]
  AUCall: 392.275 µg·h/mL
  Cmax: 56.4 µg/mL
  Dnzed AUCall: 38150 ng·h/mL/mg/kg
  t1/2: 7.0 h and 11.4 h and 9.4 h
12.5 mg FAE/mL in 15% EtOH:0.5% TPGS:15% PG:5% Glycerin, 50 mg FAE/monkey oral gavage, monkeys 117,118,119,AVG
  t1/2: 11.3 h and 11.5 h and 11.6 h
[2]
  AUCall: 270.194 µg·h/mL and 344.629 µg·h/mL and 367.461 µg·h/mL
  Cmax: 65.6 µg/mL and 52.8 µg/mL and 56.567 µg/mL
  t1/2: 14.5 h and 8.7 h and 11.8 h
[3]
  Cmax: 57.2 µg/mL and 97.4 µg/mL and 72.9 µg/mL
  t1/2: 10.4 h and 9.0 h and 9.4 h
[4]
  Dnzed AUCall: 17281 ng·h/mL/mg/kg and 15596 ng·h/mL/mg/kg
  t1/2: 8.1 h and 10.2 h and 8.7 h
12.5 mg FAE/mL in 40% PG, 20% Glycerin, 1% TPGS, 0.25% Tween80, 50 mg FAE/monkey oral gavage, monkeys 186,116,120,AVG
  t1/2: 9.9 h and 11.1 h and 10.3 h
[5]
  Cmax: 84.8 µg/mL and 77.2 µg/mL and 85.1 µg/mL
  t1/2: 7.9 h and 6.4 h and 8.2 h
[6]
  AUCall: 1681.058 µg·h/mL
  Cmax: 174 µg/mL and 199.5 µg/mL
  Dnzed AUCall: 33621 ng·h/mL/mg/kg
  t1/2: 10.2 h and 9.2 h
25 mg/mL in 30% EtOH:1% TPGS:30% PG:10% Glycerin, 50 mg FAE/monkey oral gavage, monkeys 117,118,119,AVG
  t1/2: 17.8 h and 9.0 h and 12.5 h
[7]
  Cmax: 24.9 µg/mL and 33.1 µg/mL and 27.933 µg/mL
  t1/2: 7.8 h and 8.5 h
50 mg FAE/mL in 40% PG:20% Glycerin:1% TPGS:5% Tween 80 in SWFI, 50 mg FAE/monkey oral gavage, monkeys 117,118,119,AVG
  t1/2: 11.8 h and 14.6 h and 12.8 h
10% HPβCD, 50 mg FAE/monkey oral gavage, monkeys 117,118,119,AVG
  t1/2: 10.2 h and 11.0 h and 10.4 h
male, cynomolgus monkey, in vivo
  bioavailability: ~55%
[8]
  concentration at 1 hr: 108 µg/mL
  concentration at 2 hr: 225 µg/mL
  concentration at 4 hr: 163 µg/mL
  concentration at 6 hr: 107 µg/mL
  concentration at 8 hr: 70.3 µg/mL
  concentration at 12 hr: 47.5 µg/mL
male, cynomolgus monkey, in vivo, po, 50 mg FAE
  concentration at 0.25 hr: 3.06 µg/mL
male, cynomolgus monkey, in vivo, po, 50 mg FAE, Plasma concentration, 0.25 hr, 12.5 mg FAE/mL in 15% Ethanol, 30% PG, 10% Glycerin, 50 mg FAE oral gavage, monkeys 117,118,119,AVG, BLOQ=below 50 ng/mL
  concentration at 0.25 hr: 0.066 µg/mL
male, cynomolgus monkey, in vivo, po, 50 mg FAE, Plasma concentration, 4.0 hr, 12.5 mg FAE/mL in 15% Ethanol, 30% PG, 10% Glycerin, 50 mg FAE oral gavage, monkeys 117,118,119,AVG
  concentration at 4 hr: 46 µg/mL
male, cynomolgus monkey, in vivo, po, 50 mg FAE, Plasma concentration, 6.0 hr, 12.5 mg FAE/mL in 15% Ethanol, 30% PG, 10% Glycerin, 50 mg FAE oral gavage, monkeys 117,118,119,AVG
  concentration at 6 hr: 44.7 µg/mL
male, cynomolgus monkey, in vivo, po, 50 mg FAE, Plasma concentration, 24 hr, 12.5 mg FAE/mL in 40% PG, 20% Glycerin, 0.25% Tween80, 0.2% Povidone K15, 50 mg FAE oral gavage, monkeys 186,116,120,AVG
  concentration at 24 hr: 0.434 µg/mL
male, cynomolgus monkey, in vivo, po, 50 mg FAE, Plasma concentration, 48 hr, 12.5 mg FAE/mL in 40% PG, 20% Glycerin, 0.25% Tween80, 0.2% Povidone K15, 50 mg FAE oral gavage, monkeys 186,116,120,AVG
  concentration at 48 hr: 0.0603 µg/mL
male, cynomolgus monkey, in vivo, po, 50 mg FAE, Plasma concentration, 72 hr, 12.5 mg FAE/mL in 15% Ethanol, 30% PG, 10% Glycerin, 50 mg FAE oral gavage, monkeys 117,118,119,AVG, BLOQ=below 50 ng/mL
  concentration at 72 hr: 0.179 µg/mL
[9]
  concentration at 1 hr: 85.2 µg/mL
  concentration at 2 hr: 93.3 µg/mL
  concentration at 4 hr: 62.7 µg/mL
male, cynomolgus monkey, in vivo, po, 50 mg FAE/monkey, Plasma concentration, 0.25 hr, 25 mg/mL in 30% EtOH:1% TPGS:30% PG:10% Glycerin, 50 mg FAE/monkey oral gavage, monkeys 117,118,119,AVG, BLOQ=below 50 ng/mL
  concentration at 0.25 hr: 0.147 µg/mL
male, cynomolgus monkey, in vivo, po, 50 mg FAE/monkey, Plasma concentration, 0.25 hr, 50 mg FAE/mL in 40% EtOH:40% PG:20% Glycerol, 50 mg FAE/monkey oral gavage, monkeys 117,118,119,AVG, BLOQ=below 50 ng/mL
  concentration at 0.25 hr: 0.0755 µg/mL
male, cynomolgus monkey, in vivo, po, 50 mg FAE/monkey, Plasma concentration, 0.50 hr, 12.5 mg FAE/mL in 40% PG, 20% Glycerin, 1% TPGS, 0.25% Tween80, 0.2% NaCMC, 50 mg FAE/monkey oral gavage, monkeys 117,118,119,AVG
  concentration at 0.5 hr: 12.5 µg/mL
male, cynomolgus monkey, in vivo, po, 50 mg FAE/monkey, Plasma concentration, 1.0 hr, 12.5 mg FAE/mL in 10% HPβCD, 50 mg FAE/monkey oral gavage, monkeys 186,116,120,AVG
  concentration at 1 hr: 56.4 µg/mL
male, cynomolgus monkey, in vivo, po, 50 mg FAE/monkey, Plasma concentration, 1.0 hr, 12.5 mg FAE/mL in 40% PG, 20% Glycerin, 1% TPGS, 0.25% Tween80, 50 mg FAE/monkey oral gavage, monkeys 186,116,120,AVG
  concentration at 1 hr: 65.5 µg/mL
male, cynomolgus monkey, in vivo, po, 50 mg FAE/monkey, Plasma concentration, 1.0 hr, 50 mg FAE/mL in 40% EtOH:40% PG:20% Glycerol, 50 mg FAE/monkey oral gavage, monkeys 117,118,119,AVG
  concentration at 1 hr: 19.2 µg/mL
